The target in one assay is MAGL (Mus musculus (Mouse), UniProt O35678). The assay is described as follows: In vitro competitive activity-based protein profiling, MAGL (mouse). The format is biochemical. The note with it: for inhibition at 1 µM: read-out: MAGL % inh. 1 μM (mouse). Put shortly:
(§1)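 Proteomes at 1.0 mg/mL protein (mouse brain membranes or cell lysates; human prefrontal cortex or cell membranes) preincubated with inhibitor 30 min at 37 °C. Then FP-Rh or HT-01 probe (50 μM stock) added for 30 min at 37 °C. MAGL and FAAH activity measured by SDS-PAGE band fluorescence.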

The next assay has as its target FAAH (Mus musculus (Mouse), UniProt O08914). The assay is described as follows: In vitro competitive activity-based protein profiling, FAAH (mouse). The format is biochemical. To be noted: for inhibition at 1 µM: read-out: FAAH % inh. 1 μM (mouse). The procedure, abridged:
as §1

The record followed here is patent US10323038B2, “Pyrazole compounds and methods of making and using same” (ABIDE THERAPEUTICS, INC., priority 2015, dated 2019).

Structures are written as SMILES. Where only a bound is given, the exact number is not on record here.

What is called IC50 is the concentration needed to halve the response being measured. Read a high IC50 as a need for much substance.

MAGL, sequence (O35678 whole entry): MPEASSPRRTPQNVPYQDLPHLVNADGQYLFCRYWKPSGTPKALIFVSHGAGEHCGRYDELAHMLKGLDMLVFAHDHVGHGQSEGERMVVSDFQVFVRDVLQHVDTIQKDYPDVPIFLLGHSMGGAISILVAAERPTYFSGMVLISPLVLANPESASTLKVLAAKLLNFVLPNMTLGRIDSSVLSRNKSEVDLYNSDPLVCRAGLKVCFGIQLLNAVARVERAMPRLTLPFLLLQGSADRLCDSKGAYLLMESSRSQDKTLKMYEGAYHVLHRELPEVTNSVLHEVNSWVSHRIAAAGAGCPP
FAAH, sequence (O08914 whole entry): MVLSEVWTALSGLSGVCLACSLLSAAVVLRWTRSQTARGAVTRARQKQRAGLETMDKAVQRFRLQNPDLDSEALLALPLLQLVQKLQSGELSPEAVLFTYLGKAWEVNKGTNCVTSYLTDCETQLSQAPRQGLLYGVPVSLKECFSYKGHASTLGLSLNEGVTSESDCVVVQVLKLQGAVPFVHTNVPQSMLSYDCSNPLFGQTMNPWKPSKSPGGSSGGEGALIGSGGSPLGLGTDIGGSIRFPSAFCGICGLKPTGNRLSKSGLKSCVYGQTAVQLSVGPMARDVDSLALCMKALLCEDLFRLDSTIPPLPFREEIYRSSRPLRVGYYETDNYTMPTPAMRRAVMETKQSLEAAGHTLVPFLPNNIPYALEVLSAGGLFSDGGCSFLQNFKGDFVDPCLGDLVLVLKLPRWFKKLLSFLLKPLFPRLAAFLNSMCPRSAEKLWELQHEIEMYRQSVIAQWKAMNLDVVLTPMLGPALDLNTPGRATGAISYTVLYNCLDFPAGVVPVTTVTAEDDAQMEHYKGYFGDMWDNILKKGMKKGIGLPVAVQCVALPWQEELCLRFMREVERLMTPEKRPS

As for `CC(=O)N(C)c1cnn(C(=O)N2CC3CN(Cc4cc(Cl)cc(N5CC6COCC6C5)c4)CC3C2)c1` (centres unmarked) [Example 118, N-(1-(5-(3-chloro-5-(tetrahydro-1H-furo[3,4-c]pyrrol-5(3H)-yl)benzyl)octahydropyrrolo[3,4-c]pyrrole-2-carbonyl)-1H-pyrazol-4-yl)-N-methylacetamide], on MAGL, the IC50 is not above 100 nM and the inhibition at 1 µM is not below 75%. Moreover, at FAAH, the IC50 was not above 100 nM and the inhibition at 1 µM was not below 75%.
`CC(=O)N(C)c1cnn(C(=O)N2CC3CN(Cc4cccc(N5CCCC5)c4)CC3C2)c1` (centres unmarked) [Example 119, N-methyl-N-(1-(5-(3-(pyrrolidin-1-yl)benzyl)octahydropyrrolo[3,4-c]pyrrole-2-carbonyl)-1H-pyrazol-4-yl)acetamide]: at MAGL, the IC50 was not above 100 nM and the inhibition at 1 µM is not below 75%. Also, on FAAH, the IC50 is not above 100 nM and the inhibition at 1 µM was not below 75%.
For the molecule `CC(=O)N(C)c1cnn(C(=O)N2CC3CN(Cc4cc(Cl)cc(N5CCN(C6CC6)CC5)c4)CC3C2)c1` (centres unmarked) [Example 120, N-(1-(5-(3-chloro-5-(4-cyclopropylpiperazin-1-yl)benzyl)octahydropyrrolo[3,4-c]pyrrole-2-carbonyl)-1H-pyrazol-4-yl)-N-methylacetamide], the IC50 on MAGL and at FAAH was not above 100 nM each time. In addition, the inhibition at 1 µM at MAGL and on FAAH was not below 75% in each case.
Turning to `CC(=O)N(C)c1cnn(C(=O)N2CC3CN(Cc4cccc(N5CCOCC5)c4)CC3C2)c1` (centres unmarked) [Example 121, N-methyl-N-(1-(5-(3-morpholinobenzyl)octahydropyrrolo[3,4-c]pyrrole-2-carbonyl)-1H-pyrazol-4-yl)acetamide], the inhibition at 1 µM was not below 75% on MAGL and 50 to 75% on FAAH.
As to `CC(=O)N(C)c1cnn(C(=O)N2CC3CN(Cc4ccc(F)c(Cl)c4)CC3C2)c1` (centres unmarked) [Example 122, N-(1-(5-(3-chloro-4 fluorobenzyl)octahydropyrrolo[3,4-c]pyrrole-2-carbonyl)-1H-pyrazol-4-yl)-N-methylacetamide], at MAGL, the IC50 was 100 to 1000 nM and the inhibition at 1 µM is not below 75%. At FAAH, the IC50 was not above 100 nM and the inhibition at 1 µM is not below 75%.
Turning to `CC(=O)N(C)c1cnn(C(=O)N2CC3CN(Cc4ccc(N5CCCC5)c(Cl)c4)CC3C2)c1` (centres unmarked) [Example 123, N-(1-(5-(3-chloro-4-(pyrrolidin-1-yl)benzyl)octahydropyrrolo[3,4-c]pyrrole-2-carbonyl)-1H-pyrazol-4-yl)-N-methylacetamide], the IC50 at MAGL and at FAAH was not above 100 nM throughout. Further, the inhibition at 1 µM at MAGL and at FAAH was not below 75% each time.
For the molecule `CC(=O)N(C)c1cnn(C(=O)N2CC3CN(Cc4ccc(C(F)(F)F)c(N5CCOCC5)c4)CC3C2)c1` (centres unmarked) [Example 124, N-methyl-N-(1-(5-(3-morpholino-4-(trifluoromethyl)benzyl)octahydropyrrolo[3,4-c]pyrrole-2-carbonyl)-1H-pyrazol-4-yl)acetamide], on MAGL, the IC50 is not above 100 nM and the inhibition at 1 µM was not below 75%. Besides, at FAAH, the IC50 is not above 100 nM and the inhibition at 1 µM is not below 75%.
As to `CC(=O)N(C)c1cnn(C(=O)N2CC3CN(Cc4cc(Cl)cc(N5CCOCC5)c4)CC3C2)c1` (centres unmarked) [Example 125, N-(1-(5-(3-chloro-5-morpholinobenzyl)octahydropyrrolo[3,4-c]pyrrole-2-carbonyl)-1H-pyrazol-4-yl)-N-methylacetamide], the half-inhibitory concentration (IC50) on MAGL and at FAAH was not above 100 nM in each case. For the same molecule, the inhibition at 1 µM at MAGL and at FAAH was not below 75% throughout.
Turning to `CC(=O)N(C)c1cnn(C(=O)N2CC3CN(Cc4cc(C(F)(F)F)ccc4C(F)(F)F)CC3C2)c1` (centres unmarked) [Example 126, N-(1-(5-(2,5-bis(trifluoromethyl)benzyl)octahydropyrrolo[3,4-c]pyrrole-2-carbonyl)-1H-pyrazol-4-yl)-N-methylacetamide], the inhibition at 1 µM at MAGL and on FAAH was not below 75% each time.
As to `CC(=O)N(C)c1cnn(C(=O)N2CC3CN(Cc4cc(N5CCCC5)ccc4C(F)(F)F)CC3C2)c1` (centres unmarked) [Example 127, N-methyl-N-(1-(5-(5-(pyrrolidin-1-yl)-2-(trifluoromethyl)benzyl)octahydropyrrolo[3,4-c]pyrrole-2-carbonyl)-1H-pyrazol-4-yl)acetamide], the inhibition at 1 µM at MAGL and on FAAH was not below 75% in each case.
Take `CC(=O)N(C)c1cnn(C(=O)N2CC3CN(Cc4cc(C(F)(F)F)ccc4N4CCCC4)CC3C2)c1` (centres unmarked) [Example 128, N-methyl-N-(1-(5-(2-(pyrrolidin-1-yl)-5-(trifluoromethyl)benzyl)octahydropyrrolo[3,4-c]pyrrole-2-carbonyl)-1H-pyrazol-4-yl)acetamide]: the inhibition at 1 µM on MAGL and on FAAH was not below 75% in each case.
As for `CC(=O)N(C)c1cnn(C(=O)N2CC3CN(Cc4ccc(Cl)c(N5CCOCC5)c4)CC3C2)c1` (centres unmarked) [Example 129, N-(1-(5-(4-chloro-3-morpholinobenzyl)octahydropyrrolo[3,4-c]pyrrole-2-carbonyl)-1H-pyrazol-4-yl)-N-methylacetamide], the inhibition at 1 µM on MAGL and on FAAH was not below 75% each time.
Consider `CC(=O)N(C)c1cnn(C(=O)N2CC3CN(Cc4ccc(C(F)(F)F)c(N5CCCC5)c4)CC3C2)c1` (centres unmarked) [Example 130, N-methyl-N-(1-(5-(3-(pyrrolidin-1-yl)-4-(trifluoromethyl)benzyl)octahydropyrrolo[3,4-c]pyrrole-2-carbonyl)-1H-pyrazol-4-yl)acetamide], for which, on MAGL, the IC50 is not above 100 nM and the inhibition at 1 µM was not below 75%. Further, on FAAH, the IC50 is not above 100 nM and the inhibition at 1 µM is not below 75%.
For `CC(=O)N(C)c1cnn(C(=O)N2CC3CN(Cc4ccc(N5CCOCC5)cc4C(F)(F)F)CC3C2)c1` (centres unmarked) [Example 131, N-methyl-N-(1-(5-(4-morpholino-2-(trifluoromethyl)benzyl)octahydropyrrolo[3,4-c]pyrrole-2-carbonyl)-1H-pyrazol-4-yl)acetamide], the IC50 on MAGL and at FAAH was not above 100 nM in each case. Also, the inhibition at 1 µM on MAGL and at FAAH was not below 75% each time.
Consider `CC(=O)N(C)c1cnn(C(=O)N2CC3CN(Cc4ccc(N5CCCC5)cc4Cl)CC3C2)c1` (centres unmarked) [Example 132, N-(1-(5-(2-chloro-4-(pyrrolidin-1-yl)benzyl)octahydropyrrolo[3,4-c]pyrrole-2-carbonyl)-1H-pyrazol-4-yl)-N-methylacetamide], for which the inhibition at 1 µM at MAGL and on FAAH was not below 75% throughout.
Consider `CC(=O)N(C)c1cnn(C(=O)N2C[C@H]3C[C@@H](NCc4ccccc4Cl)C[C@H]3C2)c1` [Example 133, N-(1-(cis-5-(2-chlorobenzylamino)octahydrocyclopenta[c]pyrrole-2-carbonyl)-1H-pyrazol-4-yl)-N-methylacetamide], for which the inhibition at 1 µM at MAGL is 25 to 50%; at FAAH, not below 75%.
In the same order, the values of `CC(=O)N(C)c1cnn(C(=O)N2C[C@H]3C[C@@H](NCc4ccc(Cl)cc4)C[C@H]3C2)c1` [Example 135, N-(1-(cis-5-(4-chlorobenzylamino)octahydrocyclopenta[c]pyrrole-2-carbonyl)-1H-pyrazol-4-yl)-N-methylacetamide] are not below 75% and not below 75%.
Turning to `CC(=O)N(C)c1cnn(C(=O)N2C[C@H]3C[C@H](NCc4ccccc4Cl)C[C@H]3C2)c1` [Example 136, N-(1-(trans-5-(2-chlorobenzylamino)octahydrocyclopenta[c]pyrrole-2-carbonyl)-1H-pyrazol-4-yl)-N-methylacetamide], at MAGL, the IC50 fell in the range of 100 to 1000 nM and the inhibition at 1 µM was not below 75%. Besides, on FAAH, the half-maximal inhibitory concentration (IC50) lay in the range of 100 to 1000 nM and the inhibition at 1 µM is not below 75%.
With `CC(=O)N(C)c1cnn(C(=O)N2C[C@H]3C[C@H](NCc4cccc(Cl)c4)C[C@H]3C2)c1` [Example 137, N-(1-(trans-5-(3-chlorobenzylamino)octahydrocyclopenta[c]pyrrole-2-carbonyl)-1H-pyrazol-4-yl)-N-methylacetamide], the IC50 at MAGL and on FAAH was 100 to 1000 nM throughout. Also, the inhibition at 1 µM at MAGL and on FAAH was not below 75% each time.
On to `CC(=O)N(C)c1cnn(C(=O)N2C[C@H]3C[C@H](NCc4ccc(Cl)cc4)C[C@H]3C2)c1` [Example 138, N-(1-(trans-5-(4-chlorobenzylamino)octahydrocyclopenta[c]pyrrole-2-carbonyl)-1H-pyrazol-4-yl)-N-methylacetamide], for which the inhibition at 1 µM at MAGL and at FAAH was not below 75% in each case.
As to `CC(=O)N(C)c1cnn(C(=O)N2C[C@H]3C[C@@H](N(C)Cc4ccccc4Cl)C[C@H]3C2)c1` [Example 139, N-(1-(cis-5-((2-chlorobenzyl)(methyl)amino)octahydrocyclopenta[c]pyrrole-2-carbonyl)-1H-pyrazol-4-yl)-N-methylacetamide], on MAGL, the IC50 was 1000 to 10000 nM and the inhibition at 1 µM was in the range of 25 to 50%. Also, on FAAH, the IC50 was in the range of 100 to 1000 nM and the inhibition at 1 µM was not below 75%.
In the case of `CC(=O)N(C)c1cnn(C(=O)N2C[C@H]3C[C@@H](N(C)Cc4cc(C(F)(F)F)ccc4C(F)(F)F)C[C@H]3C2)c1` [Example 140, N-(1-(cis-5-((2,5-bis(trifluoromethyl)benzyl)(methyl)amino)octahydrocyclopenta[c]pyrrole-2-carbonyl)-1H-pyrazol-4-yl)-N-methylacetamide], the inhibition at 1 µM on MAGL and on FAAH was not below 75% in each case.
